From patent US6737383B1, “Herbicidal oxadiazolidines” (priority 1999, dated 2004)

Experiments:
velvetleaf = assay: Test B pre/postemergence velvetleaf; assay type: in vivo, Abutilon theophrasti
How it was run: (§1)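 Test chemicals in a non-phytotoxic solvent mixture with surfactant were sprayed preemergence onto planted seeds and postemergence onto plants 2 to 18 cm tall (1- to 4-leaf stage). After twelve to sixteen days in a greenhouse, injury was visually rated against untreated controls from 0 (no effect) to 10 (complete control).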

morningglory = assay: Test B pre/postemergence morningglory; assay type: in vivo, Ipomoea hederacea
How it was run: as §1

bedstraw = assay: Test B pre/postemergence bedstraw; assay type: in vivo, Galium aparine
How it was run: as §1

wild oat = assay: Test B pre/postemergence wild oat; assay type: in vivo, Avena fatua
How it was run: as §1

[1] = Preemergence, Rate 62 g/ha, scale of 0 to 10 where 0 is no effect and 10 is complete control
[2] = Preemergence, Rate 250 g/ha, scale of 0 to 10 where 0 is no effect and 10 is complete control
[3] = Preemergence, Rate 500 g/ha, scale of 0 to 10 where 0 is no effect and 10 is complete control
[4] = Rate 62 g/ha, Postemergence, scale of 0 to 10 where 0 is no effect and 10 is complete control
[5] = Rate 125 g/ha, Postemergence, scale 0 to 10
[6] = Rate 125 g/ha, Preemergence, scale of 0 to 10 where 0 is no effect and 10 is complete control
[7] = Rate 500 g/ha, Postemergence, scale 0 to 10, 0 no effect, 10 complete control

Row | SMILES | Velvetleaf plant response rating (velvetleaf; [1]) | Velvetleaf plant response rating (velvetleaf; [2]) | Plant response rating, Velvetleaf (velvetleaf; [3]) | Velvetleaf plant response rating (velvetleaf; [4]) | Velvetleaf plant response rating (velvetleaf; [5]) | Velvetleaf plant response rating (velvetleaf; [6]) | Plant response rating (0 to 10; 0 is no effect, 10 is complete control), Velvetleaf (velvetleaf; Rate 250 g/ha, Postemergence) | Morningglory plant response rating (morningglory; [1]) | Morningglory plant response rating (morningglory; [2]) | Plant response rating, Morningglory (morningglory; [3]) | Morningglory plant response rating (morningglory; [4]) | Morningglory plant response rating (morningglory; [5]) | Morningglory plant response rating (morningglory; [6]) | Plant response rating (0 to 10; 0 is no effect, 10 is complete control), Morningglory (morningglory; Rate 250 g/ha, Postemergence) | Bedstraw plant response rating (bedstraw; [1]) | Plant response rating, Bedstraw (bedstraw; [3]) | Bedstraw plant response rating (bedstraw; [4]) | Bedstraw plant response rating (bedstraw; [5]) | Bedstraw plant response rating (bedstraw; [6]) | Plant response rating (0 to 10; 0 is no effect, 10 is complete control), Bedstraw (bedstraw; Rate 250 g/ha, Postemergence) | other results
1 | CC(C)N(C(=O)n1oc(=O)n(CC(=O)C(C)(C)C)c1=O)c1ccc(F)cc1 [Compound 216] | 0 | 0 | 0 | 0 | 0 | 0 | 0 | 0 | 0 | 0 | 3 | 4 | 0 | 7 | 0 | 0 | 0 | 0 | 0 | 2 | Morningglory plant response rating (morningglory; Rate 500 g/ha, Postemergence, scale 0 to 10): 10; Bedstraw plant response rating (bedstraw; [2]): 0; Wild oats plant response rating (wild oat; [1]): 0; Wild oats plant response rating (wild oat; [2]): 0; Plant response rating, Wild oats (wild oat; [3]): 0; Wild oats plant response rating (wild oat; [4]): 0; Wild oats plant response rating (wild oat; [5]): 0; Wild oats plant response rating (wild oat; [6]): 0; Plant response rating (0 to 10; 0 is no effect, 10 is complete control), Wild oats (wild oat; Rate 250 g/ha, Postemergence): 0
2 | CON=C(Cn1c(=O)on(C(=O)N(c2ccc(F)cc2)C(C)C)c1=O)C(F)(F)F [Compound 227] | 0 | 0 | 2 | 0 | 0 | 0 | 0 | 0 | 0 | 0 | 4 | 4 | 0 | 8 | 0 | 3 | 7 | 8 | 0 | 8 | Velvetleaf plant response rating (velvetleaf; [7]): 3; Morningglory plant response rating (morningglory; [7]): 10; Bedstraw plant response rating (bedstraw; [7]): 8; Wild oats plant response rating (wild oat; [1]): 0; Wild oats plant response rating (wild oat; [2]): 3; Plant response rating, Wild oats (wild oat; [3]): 3; Wild oats plant response rating (wild oat; [4]): 0; Wild oats plant response rating (wild oat; [5]): 0; Wild oats plant response rating (wild oat; [6]): 0; Plant response rating (0 to 10; 0 is no effect, 10 is complete control), Wild oats (wild oat; Rate 250 g/ha, Postemergence): 0; Wild oats plant response rating (wild oat; [7]): 2
3 | CCCCc1ccc(N(C(=O)n2oc(=O)n(-c3ccccc3C)c2=O)C(C)C)cc1 [Compound 229] | 0 | 0 | 0 | 0 | 0 | 0 | 0 | 0 | 0 | 0 | 0 | 0 | 0 | 0 | 0 | 0 | 0 | 0 | 0 | 0 | Velvetleaf plant response rating (velvetleaf; [7]): 2; Morningglory plant response rating (morningglory; [7]): 0; Bedstraw plant response rating (bedstraw; [2]): 0; Bedstraw plant response rating (bedstraw; [7]): 0; Wild oats plant response rating (wild oat; [1]): 0; Wild oats plant response rating (wild oat; [2]): 0; Plant response rating, Wild oats (wild oat; [3]): 0; Wild oats plant response rating (wild oat; [4]): 0; Wild oats plant response rating (wild oat; [5]): 0; Wild oats plant response rating (wild oat; [6]): 0; Plant response rating (0 to 10; 0 is no effect, 10 is complete control), Wild oats (wild oat; Rate 250 g/ha, Postemergence): 0; Wild oats plant response rating (wild oat; [7]): 0
4 | CCc1ccc(N(C(=O)n2oc(=O)n(-c3ccccc3C)c2=O)C(C)C)cc1 [Compound 230] | 0 | 0 | 0 | 0 | 0 | 0 | 0 | 0 | 0 | 2 | 0 | 2 | 0 | 2 | 0 | 0 | 0 | 0 | 0 | 0 | Velvetleaf plant response rating (velvetleaf; [7]): 0; Morningglory plant response rating (morningglory; [7]): 7; Bedstraw plant response rating (bedstraw; [2]): 0; Bedstraw plant response rating (bedstraw; [7]): 0; Wild oats plant response rating (wild oat; [1]): 0; Wild oats plant response rating (wild oat; [2]): 0; Plant response rating, Wild oats (wild oat; [3]): 0; Wild oats plant response rating (wild oat; [4]): 0; Wild oats plant response rating (wild oat; [5]): 0; Wild oats plant response rating (wild oat; [6]): 0; Plant response rating (0 to 10; 0 is no effect, 10 is complete control), Wild oats (wild oat; Rate 250 g/ha, Postemergence): 0; Wild oats plant response rating (wild oat; [7]): 0
5 | CC(C)N(C(=O)n1oc(=O)n(-c2cccnc2)c1=O)c1ccc(F)cc1 [Compound 234] | 0 | 0 | 0 | 0 | 0 | 0 | 0 | 0 | 0 | 0 | 0 | 0 | 0 | 1 | 0 | 0 | 0 | 0 | 0 | 0 | Velvetleaf plant response rating (velvetleaf; [7]): 0; Morningglory plant response rating (morningglory; [7]): 2; Bedstraw plant response rating (bedstraw; [2]): 0; Bedstraw plant response rating (bedstraw; [7]): 0; Wild oats plant response rating (wild oat; [1]): 0; Wild oats plant response rating (wild oat; [2]): 0; Plant response rating, Wild oats (wild oat; [3]): 0; Wild oats plant response rating (wild oat; [4]): 0; Wild oats plant response rating (wild oat; [5]): 0; Wild oats plant response rating (wild oat; [6]): 0; Plant response rating (0 to 10; 0 is no effect, 10 is complete control), Wild oats (wild oat; Rate 250 g/ha, Postemergence): 0; Wild oats plant response rating (wild oat; [7]): 0
